Laboratory results published in patent US6995164B2, “Methods of treating tumors” (Rhode Island Hospital, priority 1999, dated 2006).
“Also recorded” adds a separate entry of the source.

Legend:
[1] = tested on: tumor cells; assay: Apoptosis of tumor cells in culture; type: cell-based
[2] = tested on: normal murine bone marrow cultures; assay: Cytotoxic and apoptotic activity in normal primary cells; type: cell-based
Text: This observation was confirmed using normal (non-tumor) primary cells derived from animals, which are known to be free of tumors.

[3] = tested on: SKOV-3; assay: Cell cycle distribution and sub-G0/G1 DNA debris by flow cytometry (propidium iodide); type: cell-based, human; settings: 48 h exposure
Description: (§1) Three×10^5 cells were seeded in plastic tissue culture flasks. […] Control cultures received an appropriate volume of Kollidine-17P. […] The percentage of DNA debris in the sub-G0/G1 region was assessed using cytofluorometric techniques. Each bar represents the mean (±SE) of three determinations. **p≦0.01, ***p≦0.001, ****p≦0.0001
(§2) For flow cytometry studies, 1×10^6 PA-1, SKOV-3, or NIH-3T3 cells were incubated for 24 h in appropriate media containing serum. […] Control cultures for each cell line were incubated in media containing 40 μl of 5% Kollidon 17PF alone. Forty-eight hours later, all cells were harvested by trypsinization and prepared for cytofluorometric analysis by standard methods. For example, harvested cells were resuspended in ice cold phosphate-buffered saline at a final cell density of 2×10^6 cells/ml. The cells then were stained for 30 min at room temperature in the dark with a solution of 0.05 mg/ml propidium iodide, 0.6% Igepal, and 1% sodium citrate. Flow cytometry was performed by FACScan (Becton Dickinson, Plymouth, England) using the ModFit LT program (Becton Dickinson). […]
(§3) Three×10^5 cells were seeded in plastic tissue culture flasks. […] After an additional 48 h, cells were harvested, stained with propidium iodide, and cell cycle distribution assessed using cytofluorometric techniques. […]

[4] = tested on: NIH-3T3; assay: as above; type: cell-based, murine; settings: 48 h exposure
Description: as §1, §2, §3

[5] = tested on: NIH-3T3; assay: Western-blot analysis of PARP cleavage; type: cell-based, murine; settings: 24 h exposure to 50 or 100 μM
Description: (§4) Two×10^6 cells were seeded in 150 cm^2 tissue culture flasks. […] After an additional twenty-four hours, cells were harvested, cell number determined, and aliquots derived from equal cell numbers generated from each exposure condition. Total proteins from these whole cell lysates were separated by SDS-PAGE and transferred to nitrocellulose filters. Filters were then immunoblotted to detect intact PARP protein and cleavage fragments by using the clone C-2-10 mouse monoclonal anti-PARP antibody (Zymed Laboratories, San Francisco, Calif.). The resulting protein-antibody complexes were visualized by chemiluminescence techniques.
(§5) Western-blot analysis was used to assess of PARP cleavage. Two×10^6 cells were seeded into separate 75 cm^2 tissue culture flasks containing 20 ml of tissue culture media plus serum. […] Twenty-four hours after the addition of Taurolidine, cells were harvested, cell number determined, and aliquots containing an equal cell number were generated from each exposure condition. Total proteins from whole cell lysates generated from these aliquots were separated by SDS-PAGE and electrotransferred to nitrocellulose filters. Filters were then processed to detect intact PARP protein and cleavage fragments by using the clone C-2-10 mouse monoclonal anti-PARP antibody (Zymed Laboratories, San Francisco, Calif.). […]

[6] = tested on: PA-1; assay: Cell cycle distribution and sub-G0/G1 DNA debris by flow cytometry (propidium iodide); type: cell-based, human
Description: Three×10^5 cells were seeded in plastic tissue culture flasks. […] Control cultures received an appropriate volume of Kollidine-17P. […] The percentage of DNA debris in the sub-G0/G1 region was assessed using cytofluorometric techniques.
For flow cytometry studies, 1×10^6 PA-1, SKOV-3, or NIH-3T3 cells were incubated for 24 h in appropriate media containing serum. […] Control cultures for each cell line were incubated in media containing 40 μl of 5% Kollidon 17PF alone. Forty-eight hours later, all cells were harvested by trypsinization and prepared for cytofluorometric analysis by standard methods. For example, harvested cells were resuspended in ice cold phosphate-buffered saline at a final cell density of 2×10^6 cells/ml. The cells then were stained for 30 min at room temperature in the dark with a solution of 0.05 mg/ml propidium iodide, 0.6% Igepal, and 1% sodium citrate. Flow cytometry was performed by FACScan (Becton Dickinson, Plymouth, England) using the ModFit LT program (Becton Dickinson). Statistical analysis was performed with the Kruskal Wallis non-parametric ANOVA test followed by Dunn's multiple comparisons test using Instat.
as §3

[7] = Taurolidine-induced toxicity, 3 consecutive daily i.p. bolus injections; type: in vivo
Description: (§6) Studies to assess in vivo toxicity and therapeutic effectiveness were carried out in 6–12 week old female homozygous athymic (Hsd:athymic nude nu/nu) mice obtained from Harlan (Indianapolis, Ind.).
Control animals received 1 ml injections of 5% Kollidon 17PF alone. Animals were examined daily and body weight recorded twice weekly. A reduction in body weight of greater than 10% was considered significant. The maximally tolerated dose (MTD) was considered to be the dose which produced ˜10% mortality.
During the injection regimen, and daily thereafter for 30 d, mice were weighed and examined. Experiments were repeated a minimum of three times and mortality and weight loss data pooled.

[8] = tested on: HL-60 human promyelocytic cell line; assay: Apoptosis induction in non-adherent cancer cell model; type: cell-based
[9] = tested on: human ovarian tumor cells; assay: Growth of established tumor cell colonies in vitro; type: cell-based; settings: 24-hour exposure to 50 μM
Description: (§7) Parallel studies were carried out to assess whether disruption of cell adhesion played a role in the cytotoxic activity.

[10] = tested on: TNF; interleukins 1, 6, and 10; VEGF; TGF; assay: Angiogenesis factors in patients with metastatic colon cancer; type: in vivo, human; settings: taurolidine-treated subjects compared to placebo
Description: Patients with metastatic colon cancer were treated with taurolidine and several factors controlling angiogenesis were measured.

[11] = tested on: panel of human and murine neoplastic cell lines; assay: Cell growth inhibition across the cell line panel; type: cell-based; settings: 72 h, 3 d exposure; panel of human and murine tumor cell lines; read-out: IC50s, range over all cell lines evaluated
Description: Included in the tumor cell line panel were ovarian tumor cells (PA-1 and SKOV-3), colon tumor cells (HCT-8, HCT-15 and HT-29), lung tumor cells (H-157, A-549 and H-596), prostate tumor cells (DU-145), glioma cells (U-251), and melanoma (MNT-1). The murine melanoma B16F10 cell line was also tested. These cell lines readily available, e.g., from the American Type Culture Collection (ATCC). Cells were cultured in appropriate growth medium at 37° C. in a humidified incubator in an atmosphere of 5% CO2. Under these growth conditions, the doubling time of all cell lines was 20–28 h.
One ml of this cell suspension was added to each well of a 12 well cell culture plate that contained 3 ml of appropriate media plus serum. […] Control wells received 40 μl of 5% Kollidon 17PF alone. Seventy-two hours later, all cells were harvested by trypsinization and cell number determined electronically using a Coulter Model Z1 particle counter (Coulter Corp., Miami, Fla.) to assess cell growth inhibition. Each experiment was performed in duplicate and repeated a minimum of three times.
Cells were seeded at a density of 1–5×10^4 cells in each well of a 6 well tissue culture flask. […] After three days, cells were harvested by trypsinization and cell number determined electronically. Cell growth inhibition was determined by comparison to non-Taurolidine exposed control cultures. […]

[12] = Clinical tolerability (i.p. lavage in recurrent ovarian tumors, systemic in glioblastoma); type: in vivo, human; settings: i.p. lavage after surgery (ovarian) or systemic (glioblastoma)
Description: Taurolidine was administered by i.p. lavage immediately following surgery for removal of recurrent ovarian tumors. For patients with glioblastoma, Taurolidine was administered systemically.

[13] = tested on: glioblastoma multiforma; assay: Clinical use, intravenous infusion in advanced recurrent glioblastoma multiforma; type: in vivo, human; settings: 20 g i.v. over 6 hours twice a week, at least one 5 week regimen
Description: Four patients, which were diagnosed with advanced recurrent glioblastoma multiforma, were treated with taurolidine. The prognosis for this group of patients was determined to be approximately 8 weeks of survival.

[14] = tested on: 3T3 cells; assay: Cell cycle kinetics and DNA fragmentation after 24-hour exposure; type: cell-based
Text: (§8) This DNA fragmentation was not observed in normal 3T3 cells.

[15] = tested on: PA1 human ovarian cells; assay: as above; type: cell-based
Text: as §8

[16] = tested on: aerobic and anaerobic bacterial strains; settings: depending on the bacterial strain evaluated; cited from earlier work
[17] = tested on: PA-1; assay: Western-blot analysis of PARP cleavage; type: cell-based, human; settings: 24 h exposure to 50 or 100 μM
Description: as §4, §5

[18] = tested on: SKOV-3; assay: Western-blot analysis of PARP cleavage; type: cell-based, human; settings: 24 h exposure to 50 or 100 μM
Description: as §4, §5

[19] = tested on: MDR-transfected glioblastoma cells; assay: Cytotoxicity to drug resistant tumor cells
Description: Glioblastoma cells were transfected with a gene encoding multiple drug resistance (MDR).

[20] = tested on: SKOV-3 human ovarian tumor xenografts; assay: Therapeutic effectiveness against i.p. human ovarian tumor xenografts; type: in vivo, female nude mice
Text: Fourteen days following the final Taurolidine injection, mice in all groups were sacrificed and the peritoneal cavity examined for the presence of tumors. Each experimental was repeated three times and the pooled number of animals in each group ranged from 15–21.
Fourteen days following the final Taurolidine injection, mice in all groups were sacrificed, i.p. ovarian tumor xenografts removed and tumor weighed. Each experiment was repeated three times and the pooled number of animals in each group ranged from 15–21. Each bar represents the mean (±SE) tumor weight of 15–21 animals. ***p≦0.001, ****p≦0.0001.
as §6
To evaluate therapeutic effectiveness, mice received a single intraperitoneal injection of 5×10^6 SKOV-3 cells in a volume of 0.5 ml. Immediately thereafter, mice were randomly divided into treatment groups of 7 animals. […] Control animals received 1 ml injections of 5% Kollidon 17PF alone. Animals were examined daily and body weight recorded twice weekly. […] The mean tumor weight for each treatment group was calculated and statistical analysis of differences in the mean tumor weight between treatment groups employed the Student's t-test. p-values of ≦0.05 were considered significant.

[21] = tested on: human cancer cell lines; assay: In vitro cytotoxic activity survey of human cancer cell lines; type: cell-based
Description: as §7

SMILES: O=S1(=O)CCN(CN2CCS(=O)(=O)NC2)CN1 [Taurolidine, Bis-(1,1-dioxoperhydro-1,2,4-thiadiazinyl-4)methane]
- incubation time after which apoptosis is induced [1]: one
- concentration required to inhibit cell proliferation [2]: concentrations in the mM range were required to inhibit cell proliferation
- effect on cell cycle distribution (in words) [3]: concentration-dependent decrease in the percentage of cells in G0/G1 but increased the percentage of cells in both the S-phase and G2/M
- DNA debris in the sub-G0/G1 region ([3]; concentration-dependent): significantly increased DNA debris in the sub-G0/G1 region; also recorded: appearance of DNA debris in the sub-G0G1 region
- DNA debris in the sub-G0/G1 region [4]: did not increase DNA debris in sub-G0/G1 region; also recorded: did not significantly affect the appearance of DNA debris
- effect on cell cycle distribution (in words) [4]: decreased the percentage of cells in G0/G1 and increased the percentage of cells in S in a concentration-dependent manner
- PARP cleavage [5]: little evidence of this proteolytic event
- PARP cleavage ([5]; listed as taurolidine): PARP cleavage was not evident
- effect on cell cycle distribution (in words) ([6]; 48 h exposure to up to 100 μM): little effect on cell cycle distribution
- DNA debris in the sub-G0/G1 region ([6]; 48 h exposure, concentration-dependent): significantly increased DNA debris in the sub-G0/G1 region; also recorded: appearance of DNA debris in the sub-G0G1 region
- mortality (%) ([7]; 10 mg/mouse/inj i.p. on 3 consecutive days): 6%
- mortality (%) ([7]; 20 mg/mouse/inj i.p. on 3 consecutive days): 13%
- mortality (%) ([7]; 25 mg/mouse/inj i.p. on 3 consecutive days): 47%
- mortality (%) ([7]; 30 mg/mouse/inj i.p. on 3 consecutive days): 100%
- maximally tolerated dose (MTD) ([7]; mouse, in vivo, ip): 20 mg/mouse
- exposure time that induces apoptosis ([8]; HL-60): ≤ 90 min
- apoptosis pathway events ([8]; non-adherent cancer cell models): activation of caspases 3, 8 and 9
- cytotoxic effect against the growth of established tumor cells [9]: significant cytotoxic effect
- factors controlling the growth of blood vessels (TNF; interleukins 1, 6, 10; VEGF; TGF) [10]: decreased
- IC50 [11]: 9.6 to 34.2 µM
- tolerability in patients [12]: well tolerated
- patients in whom the tumor mass decreased or stayed the same [13]: 3 out of the 4
- cell cycle kinetics [14]: significantly reduced the percentage of cells in both the S- and G2/M-phases
- DNA fragmentation ([14]; 50 μM, flow cytometry and agarose-gel electrophoresis): not observed; also recorded: not apparent
- cell cycle kinetics ([15]; PA1): significantly reduced the percentage of cells in both the S- and G2/M-phases
- DNA fragmentation ([15]; human ovarian tumor cells, 50 μM, flow cytometry and agarose-gel electrophoresis): induced a high degree of DNA fragmentation; also recorded: overt DNA fragmentation
- minimum concentration required to inhibit bacterial cell growth (MIC) [16]: 10 to 1000 µg/mL
- PARP cleavage [17]: induced PARP cleavage; also recorded: resulted in PARP cleavage
- PARP cleavage [18]: induced PARP cleavage; also recorded: resulted in PARP cleavage
- cytotoxicity ([19]; MDR-transfected glioblastoma cells, 50 μM): Significant cytotoxicity
- tumor formation, ascites development and growth ([20]; 3 d 20 mg/mouse regimen initiated on the day of tumor cell injection): highly effective and inhibited tumor formation
- tumor growth inhibition ([20]; single cycle initiated 5 d after tumor cell injection (established i.p. tumors)): capable of significantly inhibiting tumor growth
- mean tumor size in treated mice versus controls ([20]; therapy delayed for up to 3 d after tumor cell injection): significantly smaller than in controls

SMILES: O=S1(=O)CCNCN1 [taurultam]
- induction of apoptotic death ([21]; cancer cells versus normal control cells): induced apoptotic death of cancer cells but not normal control cells
- cytotoxic activity relative to taurolidine ([21]; same human cancer cell lines as for taurolidine): approximately 75%

SMILES: COc1cccc2c1C(=O)c1c(O)c3c(c(O)c1C2=O)C[C@@](O)(C(=O)CO)C[C@@H]3O[C@H]1C[C@H](N)[C@H](O)[C@H](C)O1 [adriamycin]
- resistance of transfected cells to standard chemotherapeutic agents ([19]; MDR-transfected versus untransfected glioblastoma cells): 100–1000 times
